Data published in ChEMBL document CHEMBL4706505, “F10, a new camptothecin derivative, was identified as a new orally-bioavailable, potent antitumor agent” (Eur J Med Chem, 2020).
≈ marks a conversion by molar mass, not a printed value. Calls of active or inactive are those of the source. No cut-off for these calls is given here.

Assays:
[1] = tested on: NCI-H1975; assay: Cytotoxicity against human NCI-H1975 assessed as reduction in cell viability measured after 72 hrs by MTT assay; assay type: functional, cell-based; settings: NCI-H1975, 72 h
[2] = Toxicity in Kunming mouse assessed as mortality at 60 mg/kg, iv measured once every 30 mins upto 10 days; assay type: organism-based; settings: in vivo, 0.5 h
[3] = Solubility of compound in phosphate buffer at pH 4.5 incubated for 24 hrs under shaking condition by HPLC analysis; assay type: physicochemical
[4] = tested on: Raji; assay: Antitumor activity against NPG mouse xenografted with human Raji cell assessed as decrease in tumor volume at 4 mg/kg, ig measured on the 1 day; assay type: functional
[5] = tested on: Raji; assay: Antitumor activity against NPG mouse xenografted with human Raji cell assessed as decrease in tumor volume at 4 mg/kg, ip measured after 5 day; assay type: functional
[6] = tested on: Raji; assay: Antitumor activity against NPG mouse xenografted with human Raji cell assessed as decrease in tumor volume at 2 mg/kg, ip measured after 5 day; assay type: functional
[7] = Toxicity in NPG mouse xenografted with human Raji cells assessed as body weight loss at 4 mg/kg, ig measured after 5 day; assay type: organism-based; settings: in vivo, po, 120 h
[8] = Toxicity in Kunming mouse assessed as mortality at 30 mg/kg, iv measured once every 30 mins upto 10 days; assay type: organism-based; settings: in vivo, 0.5 h
[9] = Toxicity in NPG mouse xenografted with human Raji cells assessed as body weight loss at 4 mg/kg, ig measured on the 1 day; assay type: organism-based; settings: in vivo, po, 24 h
[10] = Solubility of compound in phosphate buffer at pH 7.4 incubated for 24 hrs under shaking condition by HPLC analysis; assay type: physicochemical
[11] = Cmax in nude BALB/c mouse serum at 8.0 mg/kg incubated up to 9 hrs, po administered via gavage by LC-MS/MS analysis; assay type: ADME, organism-based; design: route oral, dose 8 mg/kg, time <=9
[12] = tested on: Raji; assay: Antitumor activity against NPG mouse xenografted with human Raji cell assessed as decrease in tumor volume at 2 mg/kg, ip measured on the 1 day; assay type: functional
[13] = Clearance in nude BALB/c mouse serum at 8.0 mg/kg incubated up to 9 hrs, iv administered […] by LC-MS/MS analysis; assay type: ADME, organism-based
[14] = Tmax in nude BALB/c mouse serum at 8.0 mg/kg incubated up to 9 hrs, po administered via gavage by LC-MS/MS analysis; assay type: ADME, organism-based
[15] = tested on: HCT-116; assay: Induction of apoptosis in human HCT-116 cells assessed as late apoptotic cells level at 1 uM incubated for 24 hrs by Annexin V-FITC/PI staining based flow cytometry (reference value: 0.07%); assay type: functional
[16] = tested on: Raji; assay: Antitumor activity against NPG mouse xenografted with human Raji cell assessed as tumor growth inhibition at 4 mg/kg, ig measured after 5 day; assay type: functional; settings: po, 120 h, read-out: TGI
[17] = tested on: HCT-116; assay: Antitumor activity against human HCT-116 cells xenografted in nude BALB/c mouse assessed as tumor growth inhibition at 1 mg/kg, ip dosed once the other day for 24 days; assay type: functional; settings: HCT-116, ip, 576 h, time 24 day, read-out: TGI
[18] = tested on: Raji; assay: Antitumor activity against NPG mouse xenografted with human Raji cell assessed as decrease in tumor volume at 8 mg/kg, ig measured after 5 day; assay type: functional
[19] = Toxicity in Kunming mouse assessed as mortality at 200 mg/kg ip measured once every 30 mins upto 10 days; assay type: organism-based; settings: in vivo, 0.5 h
[20] = Toxicity in nude BALB/c mouse xenografted with human HCT-116 cells assessed as reduction in body weight at 8 mg/kg, po dosed once the every 2 day for upto 24 days; assay type: organism-based; settings: in vivo, time <=24 day
[21] = tested on: Raji; assay: Antitumor activity against NPG mouse xenografted with human Raji cell assessed as decrease in tumor volume at 4 mg/kg, ig measured after 5 day; assay type: functional
[22] = target: T1, DNA topoisomerase 1 (Homo sapiens) (UniProt P11387); assay: Inhibition of human recombinant topoisomerase I using DNA pBR322 as substrate assessed as relaxed DNA at 10 uM incubated for 30 mins by gel electrophoresis analysis relative to control
T1 sequence (whole entry): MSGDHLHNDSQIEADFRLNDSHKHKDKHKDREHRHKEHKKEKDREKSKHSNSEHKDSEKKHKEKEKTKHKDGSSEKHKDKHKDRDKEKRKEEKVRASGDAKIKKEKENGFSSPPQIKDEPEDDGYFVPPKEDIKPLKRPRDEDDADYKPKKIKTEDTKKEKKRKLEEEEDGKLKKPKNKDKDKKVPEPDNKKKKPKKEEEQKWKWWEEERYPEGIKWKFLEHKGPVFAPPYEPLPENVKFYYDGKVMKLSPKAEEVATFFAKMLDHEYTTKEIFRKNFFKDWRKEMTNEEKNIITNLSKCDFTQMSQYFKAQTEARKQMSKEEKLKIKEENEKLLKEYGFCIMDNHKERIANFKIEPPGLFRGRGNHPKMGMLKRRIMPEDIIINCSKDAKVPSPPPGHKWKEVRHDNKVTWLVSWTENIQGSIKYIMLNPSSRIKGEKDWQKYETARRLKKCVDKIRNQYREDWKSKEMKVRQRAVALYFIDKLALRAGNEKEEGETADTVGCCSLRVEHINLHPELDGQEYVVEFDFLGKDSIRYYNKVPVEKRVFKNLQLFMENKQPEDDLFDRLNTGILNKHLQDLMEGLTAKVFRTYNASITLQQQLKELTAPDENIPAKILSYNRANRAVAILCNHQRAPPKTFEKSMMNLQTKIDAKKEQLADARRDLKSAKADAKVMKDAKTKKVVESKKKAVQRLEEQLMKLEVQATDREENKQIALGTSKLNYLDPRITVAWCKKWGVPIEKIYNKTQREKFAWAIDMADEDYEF

[23] = Half life in nude BALB/c mouse serum at 8.0 mg/kg incubated up to 9 hrs, po administered via gavage by LC-MS/MS analysis; assay type: ADME, organism-based
[24] = tested on: HCT-116; assay: Inhibition of colony formation in human HCT-116 cells incubated for 12 days by crystal violet dye based assay; assay type: functional, cell-based; settings: dose 0.001-1 nM, time 12.0 day
[25] = Toxicity in NPG mouse xenografted with human Raji cells assessed as body weight loss at 8 mg/kg, ig measured after 5 day; assay type: organism-based; settings: in vivo, po, 120 h
[26] = tested on: HCT-116; assay: Induction of apoptosis in human HCT-116 cells assessed as early apoptotic cells level at 0.001 uM incubated for 24 hrs by Annexin V-FITC/PI staining based flow cytometry (reference value: 0.17%); assay type: functional
[27] = tested on: HCT-116; assay: Antitumor activity against human HCT-116 cells xenografted in nude BALB/c mouse assessed as tumor growth inhibition at 8 mg/kg, po dosed once the other day for 12 times upto 24 days; assay type: functional; design: scale not given: the % may be the effect or the level left; settings: time day <=24
[28] = Tmax in nude BALB/c mouse serum at 8.0 mg/kg incubated up to 9 hrs, iv administered […] by LC-MS/MS analysis; assay type: ADME, organism-based
[29] = tested on: HCT-116; assay: Antitumor activity against human HCT-116 cells xenografted in nude BALB/c mouse assessed as tumor growth inhibition at 2 mg/kg, po dosed once the other day for 12 times upto 24 days; assay type: functional; settings: HCT-116, po, 576 h, time day <=24, read-out: TGI
[30] = Toxicity in NPG mouse xenografted with human Raji cells assessed as body weight loss at 2 mg/kg, ip measured after 5 day; assay type: organism-based; settings: in vivo, 120 h

Q: Which IC50 [1] does the source give for `CCc1c2c(nc3ccc(OCC(=O)N4CCCCC4)cc13)-c1cc3c(c(=O)n1C2)COC(=O)[C@]3(O)CC` here?
A: 84 nM

Q: What about the Activity [2] of the same compound?
A: Non-Toxic

Q: And the solubility thermodynamic at 24 h [3]?
A: 9.86 µg/mL (≈ 19.1 µM)

Q: And the Activity [4]?
A: 900 mm3

Q: What about the Activity [5] of the same compound?
A: 729 mm3

Q: And the Activity [6]?
A: 936 mm3

Q: What about the Activity [7] of the same compound?
A: 25.8 g

Q: And the Activity [8]?
A: Non-Toxic

Q: And the Activity [9]?
A: 25.4 g

Q: And the solubility thermodynamic at 24 h [10]?
A: 19.9 µg/mL (≈ 38.4 µM)

Q: And the Cmax [11]?
A: 332 ng/mL

Q: What about the Activity [12] of the same compound?
A: 983 mm3

Q: What about the clearance [13] of the same compound?
A: 0.179 mL/min

Q: What about the Tmax [14] of the same compound?
A: 19.8 min

Q: And the Activity [15]?
A: 6.4%

Q: And the inhibition in vivo at 4 mg/kg [16]?
A: 33.8%

Q: And the inhibition in vivo at 1 mg/kg [17]?
A: 90.2%

Q: What about the Activity [18] of the same compound?
A: 1374 mm3

Q: And the Activity [19]?
A: Toxic

Q: And the Activity [20]?
A: Toxic

Q: And the Activity [21]?
A: 1203 mm3

Q: And the inhibition [22]?
A: 52.3%

Q: And the half-life [23]?
A: 87.6 min

Q: And the inhibition [24]?
A: Active

Q: What about the Activity [25] of the same compound?
A: 22.5 g

Q: And the Activity [26]?
A: 4.92%

Q: And the Activity [27]?
A: 96.2%

Q: And the Tmax [28]?
A: 10.2 min

Q: What about the inhibition in vivo at 2 mg/kg [29] of the same compound?
A: 79.6%

Q: What about the Activity [30] of the same compound?
A: 20.6 g
